# Measurements as given in US7829665B2 (priority 2005, dated 2010).
# Biological target: T1, full-length NS3/NS4A-2 (HCV NS3 protease) (Hepatitis C virus genotype 1a, UniProt P27958)
# T1 construct: Recombinant E. coli or Baculovirus full-length NS3 was diluted to 3.33 μM with assay buffer; made in house; host or cells: E. coli or baculovirus (BV) expression system
# Experiment: NS3-NS4 protease assay / NS3 inhibition assay (RETS1 substrate, fluorescence kinetic read)
# Type: biochemical
# Conditions: not given
# In short: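 Full-length NS3 from E. coli (2 nM in assay) or baculovirus (3 nM) was precomplexed with excess NS4A-2 peptide, then preincubated 10 min at room temperature with serially diluted compounds starting at 50 microM. Reaction was started with RETS1 substrate at 8 μM before addition and read kinetically for 30 min (ex 335/em 495 nm). Four-parameter IC50s were converted to Ki by Cheng-Prusoff using Km 2.03 μM (E. coli) or 1.74 μM (BV).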
# T1 sequence (P27958 1027-1657): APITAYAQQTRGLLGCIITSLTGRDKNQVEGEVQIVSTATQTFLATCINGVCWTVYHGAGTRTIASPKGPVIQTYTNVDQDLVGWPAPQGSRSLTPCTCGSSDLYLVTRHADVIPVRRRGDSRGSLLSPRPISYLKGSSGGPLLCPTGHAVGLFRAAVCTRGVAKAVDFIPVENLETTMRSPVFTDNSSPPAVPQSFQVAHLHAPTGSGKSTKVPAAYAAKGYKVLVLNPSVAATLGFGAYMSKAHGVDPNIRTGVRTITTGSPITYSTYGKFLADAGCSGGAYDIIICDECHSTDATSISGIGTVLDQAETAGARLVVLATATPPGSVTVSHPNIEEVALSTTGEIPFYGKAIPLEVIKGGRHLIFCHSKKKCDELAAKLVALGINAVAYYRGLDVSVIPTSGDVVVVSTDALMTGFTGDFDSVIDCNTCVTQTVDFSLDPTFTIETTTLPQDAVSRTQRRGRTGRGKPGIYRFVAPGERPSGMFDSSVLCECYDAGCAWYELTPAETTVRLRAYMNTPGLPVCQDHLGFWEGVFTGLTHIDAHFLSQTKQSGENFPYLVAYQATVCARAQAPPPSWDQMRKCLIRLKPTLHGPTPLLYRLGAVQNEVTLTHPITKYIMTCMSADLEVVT
row,Compound,IC50 [µM]
1,CC(C)(C)OC(=O)N[C@H]1CCC(O)CC/C=C\[C@@H]2C[C@@]2(C(=O)NS(=O)(=O)C2CC2)NC(=O)[C@@H]2C[C@@H](OC(=O)N3Cc4cccc(F)c4C3)CN2C1=O (stereo partly shown) [Compound 1018],< 0.1

# Same assay, conditions: Table 22; read-out: NS3-NS4 IC50
row,Compound,IC50 [µM]
1,CC(C)(C)OC(=O)N[C@H]1CCCCC/C=C\[C@@H]2C[C@@]2(C(=O)NCC2CC2)NC(=O)[C@@H]2CCCN2C1=O [Compound 2302],< 10
2,CCCNC(=O)[C@@]12C[C@H]1/C=C\CCCCC[C@H](NC(=O)OC(C)(C)C)C(=O)N1CCC[C@H]1C(=O)N2 [Compound 2319],< 0.1

# Same assay, conditions: Table 24; read-out: NS3-NS4 IC50
row,Compound,IC50 [µM]
1,"CC(C)(C)OC(=O)N[C@H]1CCCCC/C=C\[C@@H]2C[C@@]2(C(=O)NCC2CC2)NC(=O)[C@@H]2C[C@@H](OC(=O)N3Cc4ccccc4C3)CN2C1=O [Compound 2501, (1S,4R,6S,14S,18R)-1,3-Dihydro-isoindole-2-carbonyloxylic acid 14-tert-butoxycarbonylamino-4-cyclopropylmethanaminocarbonyl-2,15-dioxo-3,16-diaza-tricyclo[14.3.0.0^4,6]nonadec-7-ene-18-yl ester]",> 10

# Same assay, conditions: recombinant E. coli or Baculovirus full-length NS3 with NS4A-2; read-out: NS3-NS4 IC50
row,Compound,IC50 [µM]
1,"O=C(N[C@H]1CCCCCCC[C@@H]2C[C@@]2(C(=O)NS(=O)(=O)c2ccccc2)NC(=O)C2Cc3cc(Oc4cccc(Cl)c4)ccc3CN2C1=O)OC1CCCC1 (stereo partly drawn) [Compound 2010, Cyclopentyl (1aR,9S,19aR)-15-(3-chlorophenoxy)-10,18-dioxo-19a-(phenylsulfonylcarbamoyl)-1a,2,3,4,5,6,7,8,9,10,12,17,17a,18,19,19a-hexadecahydro-1H-2,5-diaza-bicyclo[13.1.0]hexadec-1(15)-eno[5,4-b]isoquinolin-9-ylcarbamate]",< 10
2,CCCS(=O)(=O)NC(=O)C12CC1C=CCCCCCCCC(NC(=O)OC(C)(C)C)C(=O)N1CCCC1C(=O)N2 (stereo not shown) [Compound 2105],< 1
3,COc1cccc(S(=O)(=O)NC(=O)[C@@]23C[C@H]2/C=C\CCCCC[C@H](NC(=O)OC(C)(C)C)C(=O)N2CCC[C@H]2C(=O)N3)c1 [Compound 2116],< 10
4,"CC(C)(C)OC(=O)N[C@H]1CCCCC/C=C\[C@@H]2C[C@@]2(C(=O)NS(=O)(=O)C2CC2)NC(=O)C2Cc3ccccc3CN2C1=O (stereo partly drawn) [Compound 2009, tert-Butyl (1aS,9S,19aR,Z)-19a-(cyclopropylsulfonylcarbamoyl)-10,18-dioxo-1a,4,5,6,7,8,9,10,12,17,17a,18,19,19a-tetradecahydro-1H-11,14-diaza-bicyclo[13.1.0]hexadeca-1(15),2-dieno[11,12-b]isoquinolin-9-ylcarbamate]",< 10
5,CC(C)(C)OC(=O)N[C@H]1CCCCC/C=C\[C@@H]2C[C@@]2(C(=O)NS(=O)(=O)NCCc2ccc3ccccc3c2)NC(=O)[C@@H]2CCCN2C1=O [Compound 421],> 10
6,CCOC(=O)[C@@]12C[C@H]1/C=C\CCCCC[C@H](NC(=O)OC(C)(C)C)C(=O)N1C[C@H](OC(=O)N3Cc4ccc(OCCN(C)C)cc4C3)C[C@H]1C(=O)N2 [Compound 127],< 10
7,CCN(C)S(=O)(=O)NC(=O)[C@@]12C[C@H]1/C=C\CCCCC[C@H](NC(=O)OC(C)(C)C)C(=O)N1CCC[C@H]1C(=O)N2 [Compound 400],< 10
8,COc1cccc(S(=O)(=O)NC(=O)[C@@]23C[C@H]2/C=C\CCCCC[C@H](NC(=O)OC2CCCC2)C(=O)N2C[C@H](OC(=O)N4CCc5ccccc5C4)C[C@H]2C(=O)N3)c1 [Compound 188],< 0.1
9,CC(C)(C)OC(=O)N[C@H]1CCCCC/C=C\[C@@H]2C[C@@]2(C(=O)NC(=O)Nc2ccccc2)NC(=O)[C@@H]2C[C@@H](OC(=O)N3Cc4ccccc4C3)CN2C1=O [Compound 704],< 10
10,CCOC(=O)[C@@]12C[C@H]1/C=C\CCCCC[C@H](N)C(=O)N1C[C@H](OC(=O)N3Cc4ccc(OCCN5CCOCC5)cc4C3)C[C@H]1C(=O)N2 [Compound 126],> 10
11,CC(C)(C)OC(=O)N[C@H]1CCCCC/C=C\[C@@H]2C[C@@]2(C(=O)NS(=O)(=O)Nc2ccc(C(F)(F)F)cc2)NC(=O)[C@@H]2CCCN2C1=O [Compound 2235],< 1
12,CC(C)(C)OC(=O)N[C@H]1CCCCC/C=C\[C@@H]2C[C@@]2(C(=O)NS(=O)(=O)c2ccc(C#N)cc2)NC(=O)[C@@H]2CCCN2C1=O [Compound 2134],< 1
13,CC(C)(C)OC(=O)N[C@H]1CCCCC/C=C\[C@@H]2C[C@@]2(C(=O)NS(=O)(=O)N2CCc3ccccc3C2)NC(=O)[C@@H]2CCCN2C1=O [Compound 408],< 10
14,CC(C)(C)OC(=O)NC1CCCCCCCC=CC2CC2(C(=O)NS(=O)(=O)c2ccccc2)NC(=O)C2CCCN2C1=O (stereo not shown) [Compound 2101],< 10
15,CC(C)(C)OC(=O)N[C@H]1CCCCC/C=C\[C@@H]2C[C@@]2(C(=O)NS(N)(=O)=O)NC(=O)[C@@H]2CCCN2C1=O [Compound 2203],< 1
16,CC(C)(C)OC(=O)N[C@H]1CCCCC/C=C\[C@@H]2C[C@@]2(C(=O)NS(=O)(=O)c2ccccc2F)NC(=O)[C@@H]2CCCN2C1=O [Compound 2124],< 10
17,CC[C@@H]1C[C@H]2C(=O)N[C@]3(C(=O)NS(=O)(=O)Nc4ccc(Cl)cc4)C[C@H]3/C=C\CCCCC[C@H](NC(=O)C3CC3)C(=O)N2C1 [Compound 429],< 10
18,CN(c1cccc(Cl)c1)S(=O)(=O)NC(=O)[C@@]12C[C@H]1/C=C\CCCCC[C@H](NC(=O)OC(C)(C)C)C(=O)N1CCC[C@H]1C(=O)N2 [Compound 404],< 10

row,Compound,IC50 [µM]
1,CC(C)(C)OC(=O)N[C@H]1CCCCC/C=C\[C@@H]2C[C@@]2(C(=O)NS(=O)(=O)N2CCCCC2c2cccnc2)NC(=O)[C@@H]2CCCN2C1=O (stereo partly shown) [Compound 2222],< 1
2,CC(C)(C)OC(=O)N[C@H]1CCCCC/C=C\[C@@H]2C[C@@]2(C(=O)NS(=O)(=O)CCc2ccccc2)NC(=O)[C@@H]2CCCN2C1=O [Compound 2127],< 10
3,CC(C)(C)OC(=O)N[C@H]1CCCCC/C=C\[C@@H]2C[C@@]2(C(=O)NS(=O)(=O)c2ccc3ccccc3c2)NC(=O)[C@@H]2CCCN2C1=O [Compound 2130],< 10
4,"CC(C)(C)C(O)C(=O)N[C@H]1CCCCC/C=C\[C@@H]2C[C@@]2(C(=O)NS(=O)(=O)C2CC2)NC(=O)[C@@H]2C[C@@H](OC(=O)N3Cc4cccc(F)c4C3)CN2C1=O (single isomer, unassigned) [Compound 248]",< 0.1
5,CC(C)(C)OC(=O)N[C@H]1CCCCC/C=C\[C@@H]2C[C@@]2(C(=O)NS(=O)(=O)c2cccc(C#N)c2)NC(=O)[C@@H]2CCCN2C1=O [Compound 2152],< 10
6,CC(C)(C)OC(=O)N[C@H]1CCCCC/C=C\[C@@H]2C[C@@]2(C(=O)N[S@+]([O-])C(C)(C)C)NC(=O)[C@@H]2CCCN2C1=O [Compound 2404],< 1
7,CN(c1ccccc1Cl)S(=O)(=O)NC(=O)[C@@]12C[C@H]1/C=C\CCCCC[C@H](NC(=O)OC(C)(C)C)C(=O)N1CCC[C@H]1C(=O)N2 [Compound 405],< 10
8,CC(C)(C)OC(=O)N[C@H]1CCCCC/C=C\[C@@H]2C[C@@]2(C(=O)NCc2ccncc2)NC(=O)[C@@H]2CCCN2C1=O [Compound 502],> 10
9,COc1ccc(S(=O)(=O)NC(=O)[C@@]23C[C@H]2/C=C\CCCCC[C@H](NC(=O)OC2CCCC2)C(=O)N2C[C@H](OC(=O)N4CCc5ccccc5C4)C[C@H]2C(=O)N3)cc1 [Compound 120],< 0.1
10,COC[C@@H]1CCCN1S(=O)(=O)NC(=O)[C@@]12C[C@H]1/C=C\CCCCC[C@H](NC(=O)OC(C)(C)C)C(=O)N1CCC[C@H]1C(=O)N2 [Compound 2252],< 1
11,CC(C)N(C)S(=O)(=O)NC(=O)[C@@]12C[C@H]1/C=C\CCCCC[C@H](NC(=O)OC(C)(C)C)C(=O)N1CCC[C@H]1C(=O)N2 [Compound 401],< 10
12,"O=C(N[C@H]1CCCCC/C=C\[C@@H]2C[C@@]2(C(=O)NS(=O)(=O)c2ccccc2)NC(=O)C2Cc3cc(Oc4cccc(Cl)c4)ccc3CN2C1=O)OC1CCCC1 (stereo partly drawn) [Compound 2004, Cyclopentyl (1aS,9S,19aR,Z)-15-(3-chlorophenoxy)-10,18-dioxo-19a-(phenylsulfonylcarbamoyl)-1a,4,5,6,7,8,9,10,12,17,17a,18,19,19a-tetradecahydro-1H-11,14-diaza-bicyclo[13.1.0]hexadeca-1(15), 2-dieno[11,12-b]isoquinolin-9-ylcarbamate]",< 1
13,Cc1ccc(NS(=O)(=O)NC(=O)[C@@]23C[C@H]2/C=C\CCCCC[C@H](NC(=O)OC(C)(C)C)C(=O)N2CCC[C@H]2C(=O)N3)cc1 [Compound 2243],< 1
14,CC(C)(C)OC(=O)N[C@H]1CCCCC/C=C\[C@@H]2C[C@@]2(C(=O)NCCN2CCOCC2)NC(=O)[C@@H]2C[C@@H](OC(=O)N3Cc4cccc(F)c4C3)CN2C1=O [Compound 607],> 10
15,O=C(N[C@H]1CCCCC/C=C\[C@@H]2C[C@@]2(C(=O)NS(=O)(=O)Nc2ccc(Cl)cc2)NC(=O)[C@@H]2CCCN2C1=O)OC1CCCC1 [Compound 420],> 10
16,Cc1noc(C)c1S(=O)(=O)NC(=O)[C@@]12C[C@H]1/C=C\CCCCC[C@H](NC(=O)OC1CCCC1)C(=O)N1C[C@H](OC(=O)N3CCc4ccccc4C3)C[C@H]1C(=O)N2 [Compound 187],< 0.1
17,"CC(C)(C)OC(=O)N[C@H]1CCCCC/C=C\[C@@H]2C[C@@]2(CO)NC(=O)[C@@H]2C[C@@H](OC(=O)N3Cc4cccc(F)c4C3)CN2C1=O [Compound 153, (2R,6S,13aS,14aR,16aS,Z)-6-(tert-botoxycarbonylamino)-14a-(hydroxymethyl)-5,16-dioxo-1,2,3,5,6,7,8,9,10,11,13a,14,14a,15,16,16a-hexadecahydrocyclopropa[e]pyrrolo[1,2-α][1,4]dizacyclopentadecin-2-yl-4-fluoroisoindoline-2-carboxylate]",> 10
18,CCOC(=O)[C@@]12C[C@H]1/C=C\CCCCC[C@H](NC(=O)OC(C)(C)C)C(=O)N1C[C@H](OC(=O)N3Cc4ccc(OCCN5CCOCC5)cc4C3)C[C@H]1C(=O)N2 [Compound 124],< 10
